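Compound exposure: 48 hours, 5 concentrations, 96-well plates. GI50 marks 50% less growth. TGI is the concentration that stops growth completely.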
Columns and labels:
Experiment in all cases: growth of human tumour cells (NCI), 48 h
DU-145 prostate = test system: DU-145 prostate
MCF7 breast = test system: MCF7 breast
MDA-MB-231 breast = test system: MDA-MB-231 breast
MOLT-4 leukemia = test system: MOLT-4 leukemia
RXF 393 renal = test system: RXF 393 renal
SF-268 CNS = test system: SF-268 CNS
SF-295 CNS = test system: SF-295 CNS
UO-31 renal = test system: UO-31 renal
DLD-1 colon = test system: DLD-1 colon
DMS 114 small cell lung = test system: DMS 114 small cell lung
XF 498 CNS = test system: XF 498 CNS
LXFL 529 NSCLC = test system: LXFL 529 NSCLC

Row | SMILES | TGI (DU-145 prostate) [µM] | GI50 (MCF7 breast) [µM] | TGI (MCF7 breast) [µM] | TGI (MDA-MB-231 breast) [µM] | TGI (MOLT-4 leukemia) [µM] | TGI (RXF 393 renal) [µM] | TGI (SF-268 CNS) [µM] | TGI (SF-295 CNS) [µM] | GI50 (UO-31 renal) [µM] | TGI (UO-31 renal) [µM] | TGI (DLD-1 colon) [µM] | TGI (DMS 114 small cell lung) [µM] | TGI (XF 498 CNS) [µM] | TGI (LXFL 529 NSCLC) [µM] | GI50 (DU-145 prostate) [µM] | GI50 (MDA-MB-231 breast) [µM] | GI50 (MOLT-4 leukemia) [µM] | GI50 (RXF 393 renal) [µM] | GI50 (SF-268 CNS) [µM] | GI50 (SF-295 CNS) [µM]
1 | C=CC1CN2CCC1CC2C(O)c1ccnc2ccccc12 (stereo not drawn) | > 100 | 5.05 | > 100 | > 100 | > 100 | > 100 | > 100 | > 100 | 36.8 | > 100 | – | – | – | – | – | – | – | – | – | –
2 | C=C(C)[C@@H]1CC[C@]2(C(=O)O)CC[C@]3(C)[C@H](CCC4[C@@]5(C)CC[C@H](C(=O)/C=C/c6ccc(O)c(O)c6)C(C)(C)[C@@H]5CC[C@]43C)[C@@H]12 (stereo partly drawn) | 28.1 | – | 14.9 | 35.7 | > 100 | > 100 | > 100 | 18.4 | – | 12.9 | – | – | – | – | – | – | – | – | – | –
3 | CC(=O)CC(=O)CCC(=O)O | – | – | – | – | > 100 | > 100 | > 100 | > 100 | – | > 100 | > 100 | > 100 | > 100 | – | – | – | – | – | – | –
4 | Cc1nc(-c2cc3cc(Cl)ccc3oc2=O)cc2c1c(=O)oc1ccc(Cl)cc12 | > 100 | – | > 100 | > 100 | > 100 | > 100 | > 100 | > 100 | – | > 100 | – | – | – | – | – | – | – | – | – | –
5 | CCN(CC)c1ccc2cc(-c3nc4ccccc4c(=O)[nH]3)c(=N)oc2c1 | > 100 | – | > 100 | > 100 | > 100 | > 100 | > 100 | > 100 | – | > 100 | – | – | – | – | – | – | – | – | – | –
6 | NCCOCC(N)C(=O)O (stereo not drawn) | > 100 | – | > 100 | > 100 | > 100 | > 100 | > 100 | > 100 | – | > 100 | – | – | – | – | – | – | – | – | – | –
7 | Cc1ccccc1OC(C)C(=O)NN1C(=O)CC(=O)N(c2ccccc2)C1=S (stereo not drawn) | > 100 | – | > 100 | > 100 | > 100 | > 100 | > 100 | > 100 | – | > 100 | – | – | – | – | – | – | – | – | – | –
8 | CCOC(=O)c1cnccc1CC1(C#N)c2ccccc2C=CN1C(=O)c1ccccc1 (stereo not drawn) | > 100 | – | > 100 | > 100 | 50.8 | > 100 | 82 | > 100 | – | 91.1 | – | – | – | – | – | – | – | – | – | –
9 | NC(=O)Cc1nc2c(=O)[nH]cnc2n1C1OC(CO)C(O)C1O (stereo not drawn) | > 100 | – | > 100 | > 100 | > 100 | > 100 | > 100 | > 100 | – | > 100 | – | – | – | – | – | – | – | – | – | –
10 | COC(=O)[C@@H]1CN(C(=O)c2ccccc2)C(=O)N1C(=O)OCc1ccccc1 | > 100 | – | > 100 | > 100 | > 100 | > 100 | > 100 | > 100 | – | > 100 | – | – | – | – | – | – | – | – | – | –
11 | NC1=NCC(CN2CCCC2)O1 (stereo not drawn) | > 100 | – | > 100 | > 100 | > 100 | > 100 | > 100 | > 100 | – | > 100 | – | – | – | – | – | – | – | – | – | –
12 | CC(C)C1(O)C(=O)N(c2c(F)c(F)c(F)c(F)c2F)C(=S)N1CCSc1ccccc1 (stereo not drawn) | 30.9 | – | 31.7 | 26.4 | 30.7 | 33.1 | 33.2 | 32.1 | – | 28.9 | – | – | – | – | – | – | – | – | – | –
13 | C#CCC1(C(=O)OCC)C(=O)c2ccccc2N(C)C1=O (stereo not drawn) | – | – | – | – | > 100 | – | > 100 | > 100 | – | > 100 | > 100 | > 100 | 95.9 | > 100 | – | – | – | – | – | –
14 | CCC(CC(C)C)Nc1ccc(NC(CC)CC(C)C)cc1 (stereo not drawn) | 82.1 | 15.2 | 28.4 | 33.2 | 44.5 | 28.1 | 30.6 | 61.4 | 14.8 | 29.3 | – | – | – | – | 26.5 | 16.4 | 17.8 | 14.9 | 16 | 23
15 | Cc1nc2ccc(Cl)cc2c2c1CCN2c1ccccc1 | 63.8 | – | 36 | 13.7 | 28.5 | 18.6 | 83.9 | 20.1 | – | 23.8 | – | – | – | – | – | – | – | – | – | –
16 | Nc1ncnc2c1ncn2Cc1cccc(CCl)c1 | 27.1 | – | 30.3 | 34 | > 100 | 18.8 | 32.4 | 41.8 | – | 32.5 | – | – | – | – | – | – | – | – | – | –

Reference: PubChem BioAssay (NCI)
